Measured values as given in patent publication US20060074243A1, “Hydroxamic acid and amide compounds and their use as protease inhibitors” (Pharmacia Corporation, priority 2002, published 2006).

Tests used:
Human recombinant MMP-2 = biological target: T1, Human recombinant MMP-2 (Homo sapiens, UniProt P08253); experiment: In vitro MMP inhibition analysis (fluorogenic peptide substrate cleavage), Ki; type: biochemical; conditions: Table 2
T1 construct: made in house; host or cells: MMP-2-transfected p2AHT2 cells
T1 sequence (P08253 110-660): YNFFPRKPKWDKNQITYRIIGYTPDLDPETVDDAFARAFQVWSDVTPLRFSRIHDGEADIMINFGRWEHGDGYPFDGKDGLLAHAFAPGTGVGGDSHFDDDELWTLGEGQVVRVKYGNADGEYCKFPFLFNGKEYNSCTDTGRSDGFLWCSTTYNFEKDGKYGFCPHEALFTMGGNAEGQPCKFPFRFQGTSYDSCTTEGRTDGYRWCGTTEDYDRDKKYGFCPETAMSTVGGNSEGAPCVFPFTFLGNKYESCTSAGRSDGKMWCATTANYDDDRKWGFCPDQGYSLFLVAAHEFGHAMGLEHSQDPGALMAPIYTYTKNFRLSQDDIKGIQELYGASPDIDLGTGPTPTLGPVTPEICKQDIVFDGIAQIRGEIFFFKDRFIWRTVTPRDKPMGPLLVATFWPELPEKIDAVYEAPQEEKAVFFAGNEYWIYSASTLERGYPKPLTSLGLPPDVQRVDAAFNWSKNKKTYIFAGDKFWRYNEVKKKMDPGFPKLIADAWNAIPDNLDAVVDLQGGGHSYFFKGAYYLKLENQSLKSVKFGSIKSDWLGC
Summary of the method: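 Human recombinant MMP-2 from transfected p2AHT2 cells was activated with APMA or trypsin and incubated 1 h at room temperature with compounds and 4 μM MCA-RPLGL(Dpa)ARER-NH2. Buffer was pH 7.5 Tris/NaCl/CaCl2, and fluorescence was read at ex 330/em 420 nm. Ki was fitted by Morrison's equation without substrate correction.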

Human recombinant MMP-1 = biological target: T2, Human recombinant MMP-1 (Homo sapiens, UniProt P03956); experiment: as above; type: biochemical; conditions: Table 2
T2 construct: made in house; host or cells: MMP-1-transfected HT-1080 cells (spent media)
T2 sequence (P03956 100-469): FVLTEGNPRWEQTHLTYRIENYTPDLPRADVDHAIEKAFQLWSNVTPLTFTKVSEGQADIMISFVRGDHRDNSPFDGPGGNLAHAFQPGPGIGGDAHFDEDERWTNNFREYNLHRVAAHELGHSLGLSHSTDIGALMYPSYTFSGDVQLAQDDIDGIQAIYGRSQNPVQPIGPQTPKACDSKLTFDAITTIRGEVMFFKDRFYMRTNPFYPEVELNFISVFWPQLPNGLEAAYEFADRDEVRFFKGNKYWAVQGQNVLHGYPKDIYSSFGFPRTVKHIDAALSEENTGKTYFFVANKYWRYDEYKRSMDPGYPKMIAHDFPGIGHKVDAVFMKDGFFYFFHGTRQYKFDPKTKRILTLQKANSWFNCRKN
Summary of the method: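 APMA- or trypsin-activated recombinant human MMP-1 (purified from transfected HT-1080 medium) with 4 μM MCA/Dpa quenched fluorogenic peptide, 1 h at room temperature in Tris/NaCl/CaCl2 buffer pH 7.5; fluorescence ex 330/em 420 nm. Ki from Morrison-equation fit of rates, substrate at or below Km, uncorrected.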

Structure (SMILES)	Ki (Human recombinant MMP-2)	Ki (Human recombinant MMP-1)
O=C1c2ccccc2C(=O)N1CCCOc1cccc(-c2ccc(S(=O)(=O)C3(C(=O)NO)CCOCC3)cc2)c1 [Example 196]	947 nM	> 10000 nM
O=C(NO)C1(S(=O)(=O)c2ccc(-c3ccccc3CO)cc2)CCOCC1 [Example 197]	6200 nM	> 10000 nM
O=C(NC1CCCC1)c1ccc(-c2ccc(S(=O)(=O)C3(C(=O)NO)CCOCC3)cc2)nc1 [Example 198]	2.16 nM	552 nM
C#CCN1CCC(C(=O)NO)(S(=O)(=O)c2ccc(-c3ccc(CCC(F)(F)C(F)(F)F)cn3)cc2)CC1 [Example 199]	0.085 nM	4510 nM
COCCN1CCC(C(=O)NO)(S(=O)(=O)c2ccc(-c3cnc(OCCC4CCCC4)cn3)cc2)CC1 [Example 200]	0.404 nM	> 10000 nM
O=C(NO)C1(S(=O)(=O)c2ccc(-c3ccc(CCC(F)(F)C(F)(F)F)cn3)cc2)CCOCC1 [Example 201]	0.045 nM	980 nM
O=C(NO)C1(S(=O)(=O)c2ccc(-c3ccc(CCCC(F)(F)F)cn3)cc2)CC=CC1 [Example 202]	0.32 nM	4060 nM
CCCCNC(=O)c1ccc(-c2ccc(S(=O)(=O)C3(C(=O)NO)CCOCC3)cc2)nc1 [Example 203]	1.77 nM	1140 nM
CC(C)NC(=O)c1ccc(-c2ccc(S(=O)(=O)C3(C(=O)NO)CCOCC3)cc2)nc1 [Example 204]	4.32 nM	751 nM
CC(C)(C)NC(=O)c1ccc(-c2ccc(S(=O)(=O)C3(C(=O)NO)CCOCC3)cc2)nc1 [Example 205]	15.1 nM	1070 nM
CCCCc1cnc(-c2ccc(S(=O)(=O)C3(C(=O)NO)CCN(CCOC)CC3)cc2)cn1 [Example 206]	2.98 nM	> 10000 nM
CC[C@@H](C)NC(=O)c1ccc(-c2ccc(S(=O)(=O)C3(C(=O)NO)CCOCC3)cc2)nc1 [Example 207]	4.99 nM	1380 nM
CC[C@H](C)NC(=O)c1ccc(-c2ccc(S(=O)(=O)C3(C(=O)NO)CCOCC3)cc2)nc1 [Example 208]	10.6 nM	1260 nM
COCCOC1CCC(C(=O)NO)(S(=O)(=O)c2ccc(-c3ccc(CCCC(F)(F)F)cn3)cc2)CC1 (centres unmarked) [Example 209]	0.081 nM	1280 nM
COCCOC1CCC(C(=O)NO)(S(=O)(=O)c2ccc(-c3cnc(CCCC(F)(F)F)cn3)cc2)CC1 (centres unmarked) [Example 210]	1.01 nM	> 10000 nM
O=C(CCc1nccs1)c1ccc(-c2ccc(S(=O)(=O)C3(C(=O)NO)CCOCC3)cc2)cc1 [Example 211]	0.246 nM	975 nM
O=C(Cc1ccc(-c2ccc(S(=O)(=O)C3(C(=O)NO)CCOCC3)cc2)nc1)N1CCCCC1 [Example 212]	34.7 nM	> 10000 nM
CCN1CCC(C(=O)NO)(S(=O)(=O)c2ccc(-c3cnc(CCC(F)(F)F)cn3)cc2)CC1 [Example 213]	3.57 nM	> 10000 nM

Other lines, results leading:

Ki (Human recombinant MMP-2)	Ki (Human recombinant MMP-1)	Structure (SMILES)
2.09 nM	> 10000 nM	COCCN1CCC(C(=O)NO)(S(=O)(=O)c2ccc(-c3cnc(CCC(F)(F)F)cn3)cc2)CC1 [Example 214]
1.15 nM	> 10000 nM	O=C(NO)C1(S(=O)(=O)c2ccc(-c3cnc(CCC(F)(F)F)cn3)cc2)CCN(C2CC2)CC1 [Example 215]
2.51 nM	1860 nM	C#CCN(C)C(=O)c1ccc2cc(-c3ccc(S(=O)(=O)C4(C(=O)NO)CCOCC4)cc3)ccc2c1 [Example 216]
9.06 nM	> 10000 nM	CCN1CCC(C(=O)NO)(S(=O)(=O)c2ccc(-c3cnc(CCCC(F)(F)F)cn3)cc2)CC1 [Example 217]
1.93 nM	> 10000 nM	O=C(NO)C1(S(=O)(=O)c2ccc(-c3cnc(CCCC(F)(F)F)cn3)cc2)CCN(C2CC2)CC1 [Example 218]
0.588 nM	1700 nM	Cc1nc(CCc2ccc(-c3ccc(S(=O)(=O)C4(C(=O)NO)CCOCC4)cc3)cc2)no1 [Example 219]
0.539 nM	251 nM	O=C(NCC1CC1)c1ccc2cc(-c3ccc(S(=O)(=O)C4(C(=O)NO)CCOCC4)cc3)ccc2c1 [Example 220]
5.61 nM	1860 nM	CN(C)C(=O)c1ccc2cc(-c3ccc(S(=O)(=O)C4(C(=O)NO)CCOCC4)cc3)ccc2c1 [Example 221]
7.8 nM	1440 nM	O=C(c1ccc2cc(-c3ccc(S(=O)(=O)C4(C(=O)NO)CCOCC4)cc3)ccc2c1)N1CCOCC1 [Example 222]
11 nM	1500 nM	O=C(c1ccc2cc(-c3ccc(S(=O)(=O)C4(C(=O)NO)CCOCC4)cc3)ccc2c1)N1CCCCC1 [Example 223]
